From PMC4248674 (Arthritis & rheumatology (Hoboken, N.J.), 2014)
Square brackets hold non-standard residues; d marks the D form. Peptide text beside a SMILES is read from it. Cit = NC(=O)NCCC[C@H](N)C(=O)O

biological target: HLA-DR0401 protein (Homo sapiens, UniProt P01903+P01911, A100K/A169T/F76Y/I96L/K127E/L162R/M171V/N62H/P40V/Q125Y/R42H/S133A/S149N/S66Y/V115G/V209L/W38E); test: Peptide competition binding assay against biotinylated HA306–318 on HLA-DR0401

| SMILES | IC50 |
| --- | --- |
| C[C@H](NC(=O)[C@H](C)NC(=O)[C@H](CCCNC(N)=O)NC(=O)[C@H](C)NC(=O)[C@@H]1CCCN1C(=O)[C@H](CCCNC(N)=O)NC(=O)[C@H](C)NC(=O)[C@H](CCCNC(=N)N)NC(=O)[C@H](Cc1ccc(O)cc1)NC(=O)CN)C(=O)N[C@@H](C)C(=O)N[C@H](C(=O)O)[C@@H](C)O [Cit-Fib 1] (H-GYRA[Cit]PA[Cit]AAAT-OH) | 8.2 µM |
| CC(C)C[C@H](NC(=O)[C@H](CCCNC(N)=O)NC(=O)[C@@H](NC(=O)[C@H](C)NC(=O)[C@H](CO)NC(=O)[C@H](CO)NC(=O)[C@H](CCCNC(N)=O)NC(=O)[C@@H](NC(=O)[C@H](C)NC(=O)[C@H](Cc1ccc(O)cc1)NC(=O)[C@@H](NC(=O)CN)C(C)C)[C@@H](C)O)C(C)C)C(=O)N[C@@H](CCCNC(N)=O)C(=O)N[C@@H](CO)C(=O)N[C@@H](CO)C(=O)N[C@H](C(=O)N1CCC[C@H]1C(=O)NCC(=O)N[C@H](C(=O)N[C@@H](CCCNC(=N)N)C(=O)O)C(C)C)C(C)C [Cit-Vim 1] (H-GVYAT[Cit]SSAV[Cit]L[Cit]SSVPGVR-OH) | 1.3 µM |
| CC(C)C[C@H](NC(=O)[C@H](CO)NC(=O)[C@H](CC(=O)O)NC(=O)[C@H](CC(C)C)NC(=O)[C@H](CC(N)=O)NC(=O)[C@@H](NC(=O)[C@H](CCC(=O)O)NC(=O)[C@H](CCCNC(N)=O)NC(=O)[C@H](CC(C)C)NC(=O)[C@H](CC(N)=O)NC(=O)[C@H](CC(C)C)NC(=O)[C@H](CO)NC(=O)[C@@H](N)CO)[C@@H](C)O)C(=O)O [Cit-Vim 2] | 14 µM |
| CC[C@H](C)[C@H](NC(=O)[C@H](CCCNC(N)=O)NC(=O)[C@@H](N)CCCCN)C(=O)N[C@@H](C)C(=O)N[C@@H](CCCCN)C(=O)N[C@@H](C)C(=O)N[C@H](C(=O)N[C@@H](CC(N)=O)C(=O)N[C@@H](CCC(=O)O)C(=O)N[C@@H](CCCCN)C(=O)N[C@@H](CO)C(=O)N[C@@H](CS)C(=O)N[C@@H](CC(N)=O)C(=O)N[C@@H](CS)C(=O)N[C@@H](CC(C)C)C(=O)O)C(C)C [Cit-α-enolase 4] (H-K[Cit]IAKAVNEKSCNCL-OH) | 1.9 µM |
| CC[C@H](C)[C@H](NC(=O)[C@H](CCCNC(=N)N)NC(=O)[C@@H](N)CCCCN)C(=O)N[C@@H](C)C(=O)N[C@@H](CCCCN)C(=O)N[C@@H](C)C(=O)N[C@H](C(=O)N[C@@H](CC(N)=O)C(=O)N[C@@H](CCC(=O)O)C(=O)N[C@@H](CCCCN)C(=O)N[C@@H](CO)C(=O)N[C@@H](CS)C(=O)N[C@@H](CC(N)=O)C(=O)N[C@@H](CS)C(=O)N[C@@H](CC(C)C)C(=O)O)C(C)C [α-enolase 4] (H-KRIAKAVNEKSCNCL-OH) | 1.7 µM |
